According to patent US6737383B1, “Herbicidal oxadiazolidines” (priority 1999, dated 2004):

What was measured:
bedstraw = experiment: Test B pre/postemergence bedstraw; type: in vivo, Galium aparine
Outline: (§1)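 Test chemicals in a non-phytotoxic solvent mixture with surfactant were sprayed preemergence onto planted seeds and postemergence onto plants 2 to 18 cm tall (1- to 4-leaf stage). After twelve to sixteen days in a greenhouse, injury was visually rated against untreated controls from 0 (no effect) to 10 (complete control).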

blackgrass [1] = experiment: Test B pre/postemergence blackgrass; type: in vivo, Alopecurus myosuroides
Outline: as §1

morningglory = experiment: Test B pre/postemergence morningglory; type: in vivo, Ipomoea hederacea
Outline: as §1

rice = experiment: Test B flood test rice; type: in vivo, Oryza sativa
Outline: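 Plants were grown to the 2-leaf stage before treatment with test chemical, then held in a greenhouse for twelve to sixteen days. Injury was visually rated against untreated controls on a 0–10 scale, where 0 is no effect and 10 is complete control.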

winter wheat [2] = experiment: Test E winter wheat; type: in vivo, Triticum aestivum; settings: Postemergence
Outline: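 Greenhouse-grown plants are treated (postemergence: 1- to 4-leaf stage, sandy loam/potting mix 60:40), then evaluated visually versus untreated controls some 21 to 28 days later.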

blackgrass [3] = experiment: Test E blackgrass; type: in vivo, Alopecurus myosuroides; settings: Preemergence
green foxtail = experiment: Test E green foxtail; type: in vivo, Setaria viridis; settings: Preemergence
Italian ryegrass = experiment: Test E Italian ryegrass; type: in vivo, Lolium multiflorum; settings: Preemergence
winter wheat [4] = experiment: Test E winter wheat; type: in vivo, Triticum aestivum; settings: Preemergence
wild oat = experiment: Test E wild oat; type: in vivo, Avena fatua; settings: Preemergence
winter barley = experiment: Test E winter barley; type: in vivo, Hordeum vulgare; settings: Preemergence
[5] = Preemergence, Rate 250 g/ha, scale of 0 to 10 where 0 is no effect and 10 is complete control
[6] = Preemergence, Rate 500 g/ha, scale of 0 to 10 where 0 is no effect and 10 is complete control
[7] = Rate 62 g/ha, Postemergence, scale 0 to 10 (0 no effect, 10 complete control)
[8] = Rate 125 g/ha, Postemergence, scale of 0 to 10 where 0 is no effect and 10 is complete control
[9] = Rate 125 g/ha, Preemergence, scale of 0 to 10 where 0 is no effect and 10 is complete control
[10] = Preemergence, Rate 62 g/ha, scale of 0 to 10 where 0 is no effect and 10 is complete control
[11] = Rate 250 g/ha, Postemergence, scale of 0 to 10 where 0 is no effect and 10 is complete control
[12] = Rate 500 g/ha, 0 to 100 scale (0 no effect, 100 complete control)
[13] = Rate 1000 g/ha, 0 to 100 scale, 0 no effect, 100 complete control

CCN(CC)C(=O)n1oc(=O)n(C2CC2)c1=O [Compound 297]
Bedstraw plant response rating (bedstraw; [5]): 0 | Plant response rating, Bedstraw (bedstraw; [6]): 0 | Bedstraw plant response rating (bedstraw; [7]): 0 | Bedstraw plant response rating (bedstraw; [8]): 0 | Bedstraw plant response rating (bedstraw; [9]): 0 | Blackgrass plant response rating (blackgrass [1]; [10]): 0 | Blackgrass plant response rating (blackgrass [1]; [5]): 0 | Plant response rating, Blackgrass (blackgrass [1]; [6]): 0 | Blackgrass plant response rating (blackgrass [1]; [7]): 0 | Blackgrass plant response rating (blackgrass [1]; [8]): 0 | Blackgrass plant response rating (blackgrass [1]; [9]): 0 | Plant response rating, Blackgrass (blackgrass [1]; [11]): 0 | Blackgrass plant response rating (blackgrass [1]; Rate 500 g/ha, Postemergence, scale 0 to 10, 0 no effect, 10 complete control): 0 | Morningglory plant response rating (morningglory; [10]): 0 | Morningglory plant response rating (morningglory; [5]): 0 | Plant response rating, Morningglory (morningglory; [6]): 0 | Morningglory plant response rating (morningglory; [7]): 0 | Morningglory plant response rating (morningglory; [8]): 0 | Morningglory plant response rating (morningglory; [9]): 0 | Plant response rating, Morningglory (morningglory; [11]): 0 | Rice plant response rating (rice; Rate 62 g/ha, headed Pre-emergence (flood test species), scale 0 to 10 (0 no effect, 10 complete control)): 0 | Rice plant response rating (rice; Rate 125 g/ha, Pre-emergence, flood test species, scale 0 to 10 where 0 is no effect and 10 is complete control): 0 | Rice plant response rating (rice; Rate 250 g/ha, Pre-emergence, flood-test species, scale 0 to 10, 0 is no effect, 10 is complete control): 0 | Rice plant response rating (rice; Rate 500 g/ha, Pre-emergence, flood test species, scale 0 to 10 (0 no effect, 10 complete control)): 0 | Plant response rating, Wheat (winter) (winter wheat [2]; Rate 250 g/ha, 0 to 100 scale, 0 is no effect, 100 is complete control): 50 | Plant response rating, Wheat (winter) (winter wheat [2]; Rate 1000 g/ha, 0 to 100 scale where 0 is no effect and 100 is complete control): 70 | Plant response rating, Wheat (winter) (winter wheat [2]; Rate 500 g/ha, 0 to 100 scale, 0 is no effect, 100 is complete control): 60 | Plant response rating, Blackgrass (blackgrass [3]; Rate 250 g/ha, 0 to 100 scale): 40 | Plant response rating, Blackgrass (blackgrass [3]; [12]): 20 | Plant response rating, Blackgrass (blackgrass [3]; [13]): 50 | Plant response rating, Green foxtail (green foxtail; Rate 250 g/ha, 0 to 100 scale): 60 | Plant response rating, Green foxtail (green foxtail; [12]): 60 | Plant response rating, Green foxtail (green foxtail; [13]): 60 | Plant response rating, I. Ryegrass (Italian ryegrass; Rate 250 g/ha, 0 to 100 scale): 60 | Plant response rating, I. Ryegrass (Italian ryegrass; [12]): 50 | Plant response rating, I. Ryegrass (Italian ryegrass; [13]): 40 | Plant response rating, Wheat (winter) (winter wheat [4]; Rate 250 g/ha, 0 to 100 scale): 30 | Plant response rating, Wheat (winter) (winter wheat [4]; [12]): 60 | Plant response rating, Wheat (winter) (winter wheat [4]; [13]): 70 | Plant response rating, Wild oat (wild oat; Rate 250 g/ha, 0 to 100 scale): 70 | Plant response rating, Wild oat (wild oat; [12]): 60 | Plant response rating, Wild oat (wild oat; [13]): 70 | Plant response rating, Barley (winter) (winter barley; Rate 250 g/ha, 0 to 100 scale, 0 no effect, 100 complete control): 50 | Plant response rating, Barley (winter) (winter barley; [12]): 55 | Plant response rating, Barley (winter) (winter barley; [13]): 60
